In brackets after ≈: the same amount, converted by molar mass. Where two headings read alike, the source gives them in different places.
Tests used:
TF = assay: Inhibition of the induction of TF: promoter-luciferase in transfected Caco-2 cells, TPA; type: cell-based; conditions: Homo sapiens, TPA 16 hours, read-out: Inhibition of the induction of TF IC-50
Description: In turn, VEGF also induces the expression of Tissue Factor (TF) in monocyte membranes, epithelial cells and endothelium. Although the main function of TF is to initiate the coagulation cascade, it can transduce intracellular signals participating in metastasis and angiogenesis associated to tumours. TF facilitates in vivo growth of the tumour, favouring angiogenesis.
(§1) In order to study the antiangiogenic activity of the products with general formula (I), the expression of the VEGF promoter was studied in a basal and stimulated situation using the Caco-2 human colon carcinoma cell line, temporally transfected with a vector containing the promoter f the human VEGF gene. Once the test conditions were established the capability of the product studied to inhibit the expression of the VEGF and TF genes was studied by measuring the luciferase activity of their promoters.
In the test 1.25×10^5 Caco-2 cells were used temporally transfected with t corresponding DNA in 500 μl of DEMEM-10% FCS medium in 24 dimple plates. The cells were pre-treated for 1 hour with the compounds to be tested, and later stimulated with TPA for 16 hours. Afterwards cell extracts were obtained and their luciferase activity examined, determining the protein concentration.

TD 20 = assay: Cytotoxicity (XTT kit), human colon carcinoma cell line TD20; type: cell-based; conditions: for IC50: read-out: IC-50 (cytotoxicity)
Experimental: (§2) The anti-tumoral activity of the compounds with general formula (I) was studied, determining their effect on cell lines of human colon carcinoma (TD 20 and NC 59). The two cell lines have the wild protein K-Ras. TD20 contains a mutation of the p53 suppressor gene, while NC59 has the p53 wild protein.
(§3) Both cell lines were cultured in a DMEM medium (Life Technologies) supplemented with 10% foetal bovine serum (Life Technologies) at 37° C. and 5% CO2.
(§4) Cytotoxicity tests were carried out using the XTT kit (Boehringer-Manheim) which measures the cell capability to metabolise a tetrazoyl salt to formazan.

NC59 = assay: Cytotoxicity (XTT kit), human colon carcinoma cell line NC59; type: cell-based; conditions: for IC50: read-out: IC-50 (cytotoxicity)
Experimental: as §2, §3, §4

[1] = test system: promoter of the gene COX-2; assay: Inhibition of the induction of COX-2: stable transfectant JURKAT cells, COX-2 promoter-luciferase, TPA+ionomycine; type: cell-based; conditions: Homo sapiens
[2] = test system: promoter of the human VEGF gene; assay: Inhibition of the induction of VEGF: promoter-luciferase in transfected Caco-2 cells, TPA; type: cell-based; conditions: TPA 16 hours, read-out: Inhibition of the induction of VEGF IC-50
Description: This activity has been studied determining the inhibition of the induction of the expression of VEGF. The increased expression of vascular-endothelial growth factor (VEGF) has been related to tumour progression and angiogenesis. VEGF is a proangiogenic factor, promoting mitogenesis, migration and an increased vascular permeability of in vitro endothelial cells. It has been shown recently that COX-2 can regulate the angiogenesis process induced by colon cancer cells, increasing the expression of proangiogenic factors by said cells. Inhibition of COX-2 may block this process, inhibiting the expression of some of these factors, such as VEGF.
as §1
In the test 1.25×10^5 Caco-2 cells were used temporally transfected with t corresponding DNA in 500 μl of DEMEM-10% FCS medium in 24 dimple plates. […]

MDAMB 453 = assay: Cytotoxicity (XTT kit), mammary carcinoma cell line MDAMB 453; type: cell-based; conditions: for IC50: read-out: IC-50 (cytotoxicity); for viability at 1 µM / viability at 20 µM / viability at 40 µM / viability at 60 µM / viability at 80 µM: MDA-MB-453, read-out: % Viability of mammary cancer cells ± SD
Experimental: The anti-tumoral activity of the compounds with general formula (I) was studied, determining their effect on a mammary carcinoma cell line (MDAMB 453). The cell line was cultured in a DMEM medium (Life Technologies) supplemented with 10% foetal bovine serum (Life Technologies) at 37° C. and 5% CO2.
as §4

TNF-α = assay: Inhibition of TNF-α, zymosan air pouch model in mice (ELISA); type: in vivo; conditions: i.p.
Experimental: The study of the inhibitory activity of TNF-α has been performed according to the method described by P. Klemen et al. (Europ. J. Pharmacol. 1995 281: 69-74), consisting of determining the production of TNF-α in the localised area where the inflammation is acute, specifically using the zymosan inflated air pouch model in mice. The TNF-α present in the inflammatory exudates produced in said pouch as a result of the stimulation with zymosan was determined. The analytical determination of TNF-α was performed by ELISA.

NC59 cells = assay: Signal transduction paths associated to apoptosis in NC59 cells; type: cell-based, human; conditions: 100 μM, 5 and 20 hours of exposure
Experimental: The signal transduction paths associated to the apoptosis process were then studied. After exposing NC59 cells to a 100 μM concentration of the compound of example 3, the expression levels were studied for p53, FAK and β-actine and the activation level of MAP kinases, JNK and PKB/Akt, after 5 and 20 hours of exposure.

TD20 = assay: Induction of apoptosis in tumour cell line TD20; type: cell-based, human; conditions: 100 μM
Experimental: In order to obtain a deeper knowledge of the action mechanism of these compounds the capability to induce apoptosis in the tumour cell line TD20 of the compound of example 3 was studied (dose 100 μM).

[3] = Homo sapiens, Colon carcinoma cell, read-out: % Viability of colorectal cancer cells ± SD
[4] = Homo sapiens, Colon carcinoma cell, 80 μM, read-out: % Viability of colorectal cancer cells ± SD
[5] = Homo sapiens, Colon carcinoma cell
[6] = Homo sapiens, Colon carcinoma cell, 30 μM, read-out: % Viability of colorectal cancer cells ± SD
[7] = Homo sapiens, Colon carcinoma cell, 100 μM, read-out: % Viability of colorectal cancer cells ± SD

CS(=O)(=O)c1ccc(C2CC(C(F)(F)F)=NN2c2ccc(F)cc2)cc1 (stereo not drawn) [Example 10] gave an IC50 (TF) of 22 µg/mL (≈ 56.9 µM), a viability at 1 µM (TD 20; [3]) of 95 ± 8.87% and a viability at 20 µM (TD 20; [3]) of 90.2 ± 5.97%. It also gave a viability at 40 µM (TD 20; [3]) of 43.1 ± 13.8%, a viability at 60 µM (TD 20; [3]) of 5.42 ± 4.11% and a viability at 80 µM (TD 20; [4]) of 3.22 ± 3.46%. It also gave an IC50 (TD 20; [5]) of 38 µM, an IC50 (TD 20) of 37.9 µM and a viability at 1 µM (NC59; [3]) of 92.1 ± 9.35%. It also gave a viability at 20 µM (NC59; [3]) of 76.1 ± 7.17%, a viability at 40 µM (NC59; [3]) of 15.8 ± 9.37% and a viability at 60 µM (NC59; [3]) of 2.59 ± 1.54%. It also gave a viability at 80 µM (NC59; [4]) of 1.66 ± 1.57%, an IC50 (NC59; [5]) of 27 µM and an IC50 (NC59) of 27.2 µM. The inhibition at 0.5 µg/mL ([1]; Clone C7, 0.5 μg/ml) was 20%, the inhibition at 5 µg/mL ([1]; Clone C7, 5 μg/ml) was 55% and the inhibition at 50 µg/mL ([1]; Clone C7, 50 μg/ml) was 85%. It also gave an IC50 ([1]; Clone C7, read-out: IC-50 (μg/ml), inhibition of luciferase activity) of 5.8 µg/mL (≈ 15 µM), an inhibition at 0.5 µg/mL ([1]; Clone C9, 0.5 μg/ml) of 40% and an inhibition at 5 µg/mL ([1]; Clone C9, 5 μg/ml) of 75%. The inhibition at 50 µg/mL ([1]; Clone C9, 50 μg/ml) was 85%, the IC50 ([1]; Clone C9, read-out: IC-50 (μg/ml), inhibition of luciferase activity) was 0.9 µg/mL (≈ 2.33 µM) and the inhibition at 0.5 µg/mL ([1]; Clone F9, 0.5 μg/ml) was 32%. It also gave an inhibition at 5 µg/mL ([1]; Clone F9, 5 μg/ml) of 65%, an inhibition at 50 µg/mL ([1]; Clone F9, 50 μg/ml) of 95% and an IC50 ([1]; Clone F9, read-out: IC-50 (μg/ml), inhibition of luciferase activity) of 1.8 µg/mL (≈ 4.66 µM). It also gave an IC50 [2] of 25 µg/mL (≈ 64.7 µM), an IC50 (MDAMB 453; Homo sapiens, MDA-MB-453, MDAMB 453) of 18 µM and a viability at 1 µM (MDAMB 453; Homo sapiens, MDAMB 453) of 97.5 ± 3.25%. The viability at 20 µM (MDAMB 453; Homo sapiens, MDAMB 453) was 42.8 ± 9.31%, the viability at 40 µM (MDAMB 453; Homo sapiens, MDAMB 453) was 33.3 ± 7.34% and the viability at 60 µM (MDAMB 453; Homo sapiens, MDAMB 453) was 8.25 ± 6.82%. The viability at 80 µM (MDAMB 453; Homo sapiens, MDAMB 453) was 5.8 ± 4.76%, the IC50 (MDAMB 453; MDAMB 453) was 17.9 µM and the “% Inhibition of TNF-α in inflammatory exudate stimulated by zymosan” value (from here on “% Inhibition of TNF-α”) (TNF-α; 0.039 mg/kg) was 12.6 ± 2.6%. The “% Inhibition of TNF-α” value (TNF-α; 0.156 mg/kg) was 15.7 ± 4.9%, the “% Inhibition of TNF-α” value (TNF-α; 0.625 mg/kg) was 46.8 ± 12.5% and the “% Inhibition of TNF-α” value (TNF-α; 2.5 mg/kg) was 58.8 ± 13.6%. For the same compound, the “DE-50, inhibition of TNF-α” value (TNF-α) was “DE-50 = 1.20 mg/kg, i.p”.
NS(=O)(=O)c1ccc(N2N=C(C(F)(F)F)CC2c2ccc(F)cc2F)cc1 (racemic) [Example 3, 1-(4-aminosulphonylphenyl)-5(2,4-difluorophenyl)-4,5-dihydro-3-trifluoromethyl-1H-pyrazol] gave an IC50 (TF) of 25 µg/mL (≈ 61.7 µM), a viability at 1 µM (TD 20; [3]) of 98.6 ± 2.83% and a viability at 20 µM (TD 20; [3]) of 84.5 ± 3.05%. The viability at 30 µM (TD 20; [6]) was 66.3 ± 5.84%, the viability at 40 µM (TD 20; [3]) was 27.4 ± 4.12% and the viability at 60 µM (TD 20; [3]) was 1.79 ± 2.09%. It also gave a viability at 100 µM (TD 20; [7]) of 0.69 ± 0.01%, an IC50 (TD 20; [5]) of 34 µM and an IC50 (TD 20) of 33.9 µM. The viability at 1 µM (NC59; [3]) was 99.64 ± 0.51%, the viability at 20 µM (NC59; [3]) was 76.5 ± 8.7% and the viability at 30 µM (NC59; [6]) was 56.5 ± 0.25%. The viability at 40 µM (NC59; [3]) was 16.7 ± 10.5%, the viability at 60 µM (NC59; [3]) was 1.16 ± 0.83% and the viability at 100 µM (NC59; [7]) was 0%. The IC50 (NC59; [5]) was 30 µM, the IC50 (NC59) was 29.9 µM and the IC50 [2] was 20 µg/mL (≈ 49.3 µM). For the same compound, the viability at 1 µM (MDAMB 453; Homo sapiens, MDAMB 453) was 94.8 ± 8.71%, the viability at 20 µM (MDAMB 453; Homo sapiens, MDAMB 453) was 31.5 ± 9.12% and the viability at 40 µM (MDAMB 453; Homo sapiens, MDAMB 453) was 12.8 ± 4.8%. For the same compound, the viability at 60 µM (MDAMB 453; Homo sapiens, MDAMB 453) was 5.97 ± 5.06%, the viability at 80 µM (MDAMB 453; Homo sapiens, MDAMB 453) was 2.84 ± 1.71% and the “signal transduction paths activated (p53, FAK, β-actine expression; MAP kinases, JNK, PKB/Akt activation)” value (NC59 cells) was “activation of signal transduction paths other than p53, JNK or p38”. The apoptotic cells (TD20; after 24 h) was 20% and the apoptotic cells (TD20; after 48 h) was 80%.

Reference: patent US20040034082A1, “Utilization of pyrazoline derivatives in the preparation of a medicament for the prevention and/or treatment of proliferative cell diseases” (priority 2001, published 2004)
